Results: patent publication US20120225862A1, “HETEROARYL BENZAMIDES, COMPOSITIONS AND METHODS OF USE” (AUCKLAND UNIVSERVICES LIMITED, priority 2009, published 2012)

Assays:
[1] = system: RCC4/VHL; assay: Clonogenic survival, RCC4/VHL; assay type: cell-based, human; conditions: RCC4/VHL (wild-type VHL), 5 μM, 10 days
Description: Three hundred cells were plated into 60-mm tissue culture dishes in DMEM. The next day, cells were treated with vehicle or drug and were further incubated for an additional 10 days. After 10 days, the media was removed and colonies were fixed and stained in 95% ethanol and 0.1% crystal violet for 15 minutes. The stain was removed and plates were washed in deionized water. Colonies were quantified. All conditions were measured in triplicate and all experiments were performed in triplicate.
For 2,3-bis[2-methoxy-4-nitro-5-sulfophenyl]-2H-tetrazolium-5-carboxanilide (XTT) assays, five thousand cells were plated in 96-well plates. The next day, vehicle (DMSO) or drug was added by serial dilution. Four days later, media were aspirated, XTT solution (0.3 mg/ml of XTT (Sigma), 2.65 mg/ml N-methyl dibenxopyrazine methyl sulfate (Simga) in phenol red-free media) was added, and the plates were incubated at 37° C. for 1-2 hours. Metabolism of XTT was quantified by measuring the absorbance at 450 nm. IC50s were calculated using linear interpolation. For clonogenic survival assays, three hundred cells were plated per 60 mm tissue culture dish. The cells were allowed to attach overnight and then treated with vehicle or drug for 14 days. […] All conditions were measured in triplicate and each experiment was done in duplicate or triplicate. […] Live and dead cells were counted on a hematocytometer.

[2] = system: RCC4/VHL; assay: Necrotic cell death by trypan blue, RCC4/VHL; assay type: cell-based, human; conditions: 3 days, 5 μM, FIG. 2F
Description: For 2,3-bis[2-methoxy-4-nitro-5-sulfophenyl]-2H-tetrazolium-5-carboxanilide (XTT) assays, five thousand cells were plated in 96-well plates. The next day, vehicle (DMSO) or drug was added by serial dilution. Four days later, media were aspirated, XTT solution (0.3 mg/ml of XTT (Sigma), 2.65 mg/ml N-methyl dibenxopyrazine methyl sulfate (Simga) in phenol red-free media) was added, and the plates were incubated at 37° C. for 1-2 hours. Metabolism of XTT was quantified by measuring the absorbance at 450 nm. IC50s were calculated using linear interpolation. For clonogenic survival assays, three hundred cells were plated per 60 mm tissue culture dish. The cells were allowed to attach overnight and then treated with vehicle or drug for 14 days. Colonies were fixed and stained with crystal violet (0.1% crystal violet in 95% ethanol). All conditions were measured in triplicate and each experiment was done in duplicate or triplicate. To determine necrosis, cells were treated with drug for a given time point. Media and cells were collected, centrifugated, and resuspended in 0.4% trypan blue (Invitrogen). Live and dead cells were counted on a hematocytometer.

[3] = system: hexokinase; assay: Hexokinase activity in whole cell lysates, RCC4/VHL; assay type: cell-based, human; conditions: 5 μM
Description: (§1) All cells were grown in DMEM+10% FCS. ACHN and ACHN shVHL were a kind gift from George V. Thomas (UCLA). HIF overexpressing clones were described previously. Transfection of RNA oligos were performed with DnarmaFECT Reagent 1 (Dharmcon), according to manufacturer's directions. ON-TARGETplus SMART pools against HIF-1β/ARNT were purchased from Dharmacon. Glut1 was detected with anti-GLUT1 antibody from NeoMarkers/LabVision/Fisher. Pyruvate/lactate levels and hexokinase activity were both measured by fluorometric assay (BioVision and Sigma-Aldrich, respectively). ATP levels were measured by bioluminescence assay (ATP Determination Kit from Molecular Probes/Invitrogen). In vitro kinase activities were performed by Millipore KinaseProfiler. Affi-Gel 10 (BioRad) activated affinity media was coupled to analogs to generate immobilized affinity linkers.
We then examined whether this decrease in glycolysis in response to compound 47 was due to a decrease in glucose uptake or whether compound 47 inhibited a particular glycolytic enzyme. To test this, we measured glucose uptake using 2-deoxy-D-[^3H] glucose, a non-hydrolyzable, radioactive glucose analog, following two days of treatment with compound 47. […] RCC4/VHL cells had lower baseline levels of glucose uptake compared to RCC4 cells and were unaffected by treatment with compound 47. […]

[4] = biological target: T1, ASK1 (Homo sapiens, UniProt Q99683); assay: In vitro kinase activity (Millipore KinaseProfiler): ASK1; assay type: biochemical; conditions: no head or unit printed
T1 construct: purchased Millipore (KinaseProfiler service)
Description: as §1
(§2) We next wanted to investigate the differential glucose uptake between RCCs with and without VHL treated with compound 47 that subsequently lead to the selective death of VHL-deficient cells. We first examined the message levels of the two main glucose transporters, GLUT1 and GLUT2 by quantitative real-time PCR. GLUT1 is an inducible, high-affinity glucose transporter, while GLUT2 is the glucose transporter responsible for basal glucose uptake. […] Cells deficient in VHL had very low levels of GLUT2 that could barely be detected (FIG. 3J). […]

[5] = biological target: T2, Aurora-A (Homo sapiens, UniProt O14965); assay: In vitro kinase activity (Millipore KinaseProfiler): Aurora-A; assay type: biochemical; conditions: no head or unit printed
T2 construct: purchased Millipore (KinaseProfiler service)
Description: as §1, §2

[6] = biological target: T3, Flt3 (Homo sapiens, UniProt P36888); assay: In vitro kinase activity (Millipore KinaseProfiler): Flt3; assay type: biochemical; conditions: no head or unit printed
T3 construct: purchased Millipore (KinaseProfiler service)
Description: as §1, §2

[7] = biological target: T4, Hck (Homo sapiens, UniProt P08631); assay: In vitro kinase activity (Millipore KinaseProfiler): Hck; assay type: biochemical; conditions: no head or unit printed
T4 construct: purchased Millipore (KinaseProfiler service)
Description: as §1, §2

[8] = biological target: T5, MAPKAP-K2 (Homo sapiens, UniProt P49137); assay: In vitro kinase activity (Millipore KinaseProfiler): MAPKAP-K2; assay type: biochemical; conditions: no head or unit printed
T5 construct: purchased Millipore (KinaseProfiler service)
Description: as §1, §2

[9] = biological target: T6, mTOR (Homo sapiens, UniProt P42345); assay: In vitro kinase activity (Millipore KinaseProfiler): mTOR; assay type: biochemical; conditions: no head or unit printed
T6 construct: purchased Millipore (KinaseProfiler service)
Description: as §1, §2

[10] = biological target: T7, PDK1 (Homo sapiens, UniProt O15530); assay: In vitro kinase activity (Millipore KinaseProfiler): PDK1; assay type: biochemical; conditions: no head or unit printed
T7 construct: purchased Millipore (KinaseProfiler service)
Description: as §1, §2

[11] = biological target: T8, Pim-2 (Homo sapiens, UniProt Q9P1W9); assay: In vitro kinase activity (Millipore KinaseProfiler): Pim-2; assay type: biochemical; conditions: no head or unit printed
T8 construct: purchased Millipore (KinaseProfiler service)
Description: as §1, §2

[12] = biological target: T9, Rsk1 (Homo sapiens, UniProt Q15418); assay: In vitro kinase activity (Millipore KinaseProfiler): Rsk1; assay type: biochemical; conditions: no head or unit printed
T9 construct: purchased Millipore (KinaseProfiler service)
Description: as §1, §2

[13] = biological target: T10, Tie2 (Homo sapiens, UniProt Q02763); assay: In vitro kinase activity (Millipore KinaseProfiler): Tie2; assay type: biochemical; conditions: no head or unit printed
T10 construct: purchased Millipore (KinaseProfiler service)
Description: as §1, §2

[14] = biological target: T11, TrkA (Homo sapiens, UniProt P04629); assay: In vitro kinase activity (Millipore KinaseProfiler): TrkA; assay type: biochemical; conditions: no head or unit printed
T11 construct: purchased Millipore (KinaseProfiler service)
Description: as §1, §2

T11 sequence (P04629 33-796): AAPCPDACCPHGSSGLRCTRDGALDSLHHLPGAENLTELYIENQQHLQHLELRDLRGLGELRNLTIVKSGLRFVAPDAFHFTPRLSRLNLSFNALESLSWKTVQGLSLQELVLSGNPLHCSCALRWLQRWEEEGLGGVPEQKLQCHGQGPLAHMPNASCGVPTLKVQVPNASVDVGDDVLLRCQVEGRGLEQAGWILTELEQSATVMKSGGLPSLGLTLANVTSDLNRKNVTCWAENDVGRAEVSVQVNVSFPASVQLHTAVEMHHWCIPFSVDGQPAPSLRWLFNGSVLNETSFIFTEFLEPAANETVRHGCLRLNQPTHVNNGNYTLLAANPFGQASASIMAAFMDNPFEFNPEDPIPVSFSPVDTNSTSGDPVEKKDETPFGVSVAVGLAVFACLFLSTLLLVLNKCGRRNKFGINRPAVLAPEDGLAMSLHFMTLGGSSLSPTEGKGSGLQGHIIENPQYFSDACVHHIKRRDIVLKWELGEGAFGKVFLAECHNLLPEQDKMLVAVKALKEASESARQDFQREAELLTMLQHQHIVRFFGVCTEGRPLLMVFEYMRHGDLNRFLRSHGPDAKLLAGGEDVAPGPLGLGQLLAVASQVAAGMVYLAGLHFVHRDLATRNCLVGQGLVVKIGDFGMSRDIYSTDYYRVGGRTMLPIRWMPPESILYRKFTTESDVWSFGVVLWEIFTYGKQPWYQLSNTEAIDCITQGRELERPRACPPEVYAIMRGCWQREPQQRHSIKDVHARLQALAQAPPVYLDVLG
T3 sequence (P36888 27-993, species assumed): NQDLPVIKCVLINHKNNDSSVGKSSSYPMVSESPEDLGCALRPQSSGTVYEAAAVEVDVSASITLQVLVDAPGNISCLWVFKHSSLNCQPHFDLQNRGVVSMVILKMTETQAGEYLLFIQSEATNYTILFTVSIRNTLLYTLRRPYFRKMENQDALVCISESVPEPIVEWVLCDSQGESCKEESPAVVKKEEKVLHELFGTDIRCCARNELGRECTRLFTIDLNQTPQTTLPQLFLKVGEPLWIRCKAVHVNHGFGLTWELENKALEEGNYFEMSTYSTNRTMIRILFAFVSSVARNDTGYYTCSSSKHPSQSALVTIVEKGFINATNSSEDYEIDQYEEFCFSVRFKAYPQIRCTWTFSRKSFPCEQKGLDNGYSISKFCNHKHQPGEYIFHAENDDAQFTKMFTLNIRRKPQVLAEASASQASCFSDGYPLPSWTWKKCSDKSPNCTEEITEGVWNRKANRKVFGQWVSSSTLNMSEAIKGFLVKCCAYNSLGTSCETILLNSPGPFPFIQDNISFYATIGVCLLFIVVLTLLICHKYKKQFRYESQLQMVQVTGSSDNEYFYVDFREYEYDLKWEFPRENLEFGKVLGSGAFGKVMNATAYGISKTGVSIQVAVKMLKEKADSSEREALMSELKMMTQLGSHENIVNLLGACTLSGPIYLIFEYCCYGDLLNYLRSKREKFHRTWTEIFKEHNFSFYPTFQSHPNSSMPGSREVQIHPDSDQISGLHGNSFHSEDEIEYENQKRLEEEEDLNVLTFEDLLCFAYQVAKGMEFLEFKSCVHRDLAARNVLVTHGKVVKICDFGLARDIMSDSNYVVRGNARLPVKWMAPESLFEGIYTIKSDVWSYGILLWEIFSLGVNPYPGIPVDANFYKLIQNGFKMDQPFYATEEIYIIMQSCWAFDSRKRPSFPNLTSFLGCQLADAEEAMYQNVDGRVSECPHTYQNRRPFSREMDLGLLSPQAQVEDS
T5 sequence (P49137 whole entry, species assumed): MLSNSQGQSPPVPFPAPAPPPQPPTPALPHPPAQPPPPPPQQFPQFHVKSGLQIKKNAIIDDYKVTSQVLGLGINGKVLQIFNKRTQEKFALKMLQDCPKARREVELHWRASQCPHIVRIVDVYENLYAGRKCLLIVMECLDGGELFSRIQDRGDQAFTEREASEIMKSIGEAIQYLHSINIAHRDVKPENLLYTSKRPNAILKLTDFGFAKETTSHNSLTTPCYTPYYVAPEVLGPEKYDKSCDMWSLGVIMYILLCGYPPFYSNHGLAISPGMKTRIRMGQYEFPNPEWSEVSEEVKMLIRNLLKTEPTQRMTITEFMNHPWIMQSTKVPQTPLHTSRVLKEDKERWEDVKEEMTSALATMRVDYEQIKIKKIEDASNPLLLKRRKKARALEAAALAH
T7 sequence (O15530 whole entry): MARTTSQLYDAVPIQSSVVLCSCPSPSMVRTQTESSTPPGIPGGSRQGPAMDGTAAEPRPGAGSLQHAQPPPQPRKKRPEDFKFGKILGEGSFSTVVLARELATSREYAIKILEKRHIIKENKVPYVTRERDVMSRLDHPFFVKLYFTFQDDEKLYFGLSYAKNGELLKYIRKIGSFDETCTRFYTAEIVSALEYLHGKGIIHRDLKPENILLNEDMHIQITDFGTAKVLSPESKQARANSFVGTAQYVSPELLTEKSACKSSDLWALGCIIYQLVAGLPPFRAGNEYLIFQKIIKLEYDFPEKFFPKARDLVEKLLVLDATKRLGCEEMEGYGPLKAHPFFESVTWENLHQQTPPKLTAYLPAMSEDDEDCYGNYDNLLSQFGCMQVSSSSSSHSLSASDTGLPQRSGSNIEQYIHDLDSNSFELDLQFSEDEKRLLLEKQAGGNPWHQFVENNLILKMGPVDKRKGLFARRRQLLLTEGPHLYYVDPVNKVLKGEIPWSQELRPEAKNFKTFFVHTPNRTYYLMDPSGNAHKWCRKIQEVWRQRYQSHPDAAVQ
T2 sequence (O14965 whole entry): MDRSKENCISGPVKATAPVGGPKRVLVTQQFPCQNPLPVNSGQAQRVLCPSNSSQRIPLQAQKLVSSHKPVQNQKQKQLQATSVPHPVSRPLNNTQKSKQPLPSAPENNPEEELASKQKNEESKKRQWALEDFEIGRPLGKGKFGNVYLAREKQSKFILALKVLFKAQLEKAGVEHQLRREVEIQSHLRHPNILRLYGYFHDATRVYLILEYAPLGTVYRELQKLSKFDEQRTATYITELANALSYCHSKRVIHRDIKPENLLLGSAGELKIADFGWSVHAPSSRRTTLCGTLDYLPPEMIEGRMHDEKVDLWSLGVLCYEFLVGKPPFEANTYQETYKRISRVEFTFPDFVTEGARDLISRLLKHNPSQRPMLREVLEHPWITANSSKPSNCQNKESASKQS
T8 sequence (Q9P1W9 whole entry, species assumed): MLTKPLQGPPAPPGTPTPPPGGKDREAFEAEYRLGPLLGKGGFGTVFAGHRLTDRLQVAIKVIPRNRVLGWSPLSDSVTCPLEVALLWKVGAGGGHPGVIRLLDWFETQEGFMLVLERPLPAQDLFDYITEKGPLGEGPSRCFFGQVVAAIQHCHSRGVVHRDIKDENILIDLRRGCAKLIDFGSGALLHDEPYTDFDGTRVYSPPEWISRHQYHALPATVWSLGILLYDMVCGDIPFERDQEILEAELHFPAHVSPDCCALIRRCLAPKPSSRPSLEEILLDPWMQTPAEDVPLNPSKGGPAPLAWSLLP
T9 sequence (Q15418 whole entry, species assumed): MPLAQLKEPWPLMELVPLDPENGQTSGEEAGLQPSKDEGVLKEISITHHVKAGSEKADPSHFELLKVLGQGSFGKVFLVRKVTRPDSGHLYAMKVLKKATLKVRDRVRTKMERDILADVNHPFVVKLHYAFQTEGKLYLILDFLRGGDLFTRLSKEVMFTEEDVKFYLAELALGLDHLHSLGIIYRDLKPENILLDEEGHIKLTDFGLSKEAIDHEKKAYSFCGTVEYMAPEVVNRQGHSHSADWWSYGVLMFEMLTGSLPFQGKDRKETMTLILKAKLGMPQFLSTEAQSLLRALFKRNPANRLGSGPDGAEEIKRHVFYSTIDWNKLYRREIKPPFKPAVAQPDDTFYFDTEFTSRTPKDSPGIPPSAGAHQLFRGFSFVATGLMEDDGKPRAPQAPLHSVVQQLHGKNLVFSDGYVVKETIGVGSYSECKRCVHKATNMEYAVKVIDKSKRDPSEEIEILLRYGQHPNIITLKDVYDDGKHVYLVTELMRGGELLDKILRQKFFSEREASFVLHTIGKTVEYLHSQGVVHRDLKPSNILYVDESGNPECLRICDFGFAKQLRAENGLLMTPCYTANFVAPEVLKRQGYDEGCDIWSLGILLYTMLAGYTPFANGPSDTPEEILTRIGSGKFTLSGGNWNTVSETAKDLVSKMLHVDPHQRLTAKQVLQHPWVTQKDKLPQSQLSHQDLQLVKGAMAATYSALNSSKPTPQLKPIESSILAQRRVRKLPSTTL
T4 sequence (P08631 whole entry, species assumed): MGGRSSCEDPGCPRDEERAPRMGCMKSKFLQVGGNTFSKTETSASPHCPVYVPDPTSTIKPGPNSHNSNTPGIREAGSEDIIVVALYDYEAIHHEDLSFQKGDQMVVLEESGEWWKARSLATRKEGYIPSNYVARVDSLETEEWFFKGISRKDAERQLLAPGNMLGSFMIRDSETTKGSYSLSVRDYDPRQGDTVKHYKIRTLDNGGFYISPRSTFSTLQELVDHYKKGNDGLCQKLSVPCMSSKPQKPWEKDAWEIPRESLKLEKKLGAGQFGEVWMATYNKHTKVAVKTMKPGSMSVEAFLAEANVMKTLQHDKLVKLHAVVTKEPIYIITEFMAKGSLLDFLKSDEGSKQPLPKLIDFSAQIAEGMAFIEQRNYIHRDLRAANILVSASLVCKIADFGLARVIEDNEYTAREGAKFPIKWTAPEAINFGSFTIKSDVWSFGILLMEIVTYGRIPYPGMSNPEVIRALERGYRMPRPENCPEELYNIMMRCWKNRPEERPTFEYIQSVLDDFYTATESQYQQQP

With `CC(C)(C)c1ccc(S(=O)(=O)NCc2ccc(C(=O)Nc3cccnc3)cc2)cc1` [Example 38, 4-((4-tert-Butylphenylsulfonamido)methyl)-N-(pyridin-3-yl)benzamide] the “clonogenic survival of RCC4/VHL” value [1] was “relatively unaffected”, the “necrotic cell death in RCC4/VHL” value [2] was “relatively insensitive” and the “hexokinase activity in RCC4/VHL” value [3] was “unchanged”. It also gave an ASK1 kinase activity [4] of 129%, an Aurora-A kinase activity [5] of 108% and a Flt3 kinase activity [6] of 111%. It also gave a Hck kinase activity [7] of 84%, an MAPKAP-K2 kinase activity [8] of 87 and a mTOR kinase activity [9] of 101. For the same compound, the PDK1 kinase activity [10] was 105%, the Pim-2 kinase activity [11] was 112 and the Rsk1 kinase activity [12] was 120%. It also gave a Tie2 kinase activity [13] of 111% and a TrkA kinase activity [14] of 124.
